Test system: cerebrocortical cat brain tissue slice
Test: In vitro Cerebrocortical Cat Brain Tissue Slice Assay (inhibition of HCO3^- -stimulated swelling)
Assay type: cell-based
Conditions: Felis catus, 1 h, 27 mM K^+, 10 mM HCO3^-, 37° C., 60 min incubation
Procedure: See, e.g., Bourke et al., Neurochem. Res., 8, 5 (1983), and Cragoe et al., J. Med. Chem., 25, 567 (1982).
In Vitro Cerebrocortical Cat Brain Tissue Slice Assay
Adult cats of 2-3 kg body weight were employed in tissue slice studies. Prior to sacrifice, the animals were anesthetized with ketamine hydrochloride, 10 mg/kg intramuscularly. Eight (three control, five experimental) pial surface cerebrocortical tissue slices (0.5 mm thick; approximately 150 mg initial fresh weight) were cut successively with a calibrated Stadie-Riggs fresh tissue microtome without moistening and weighed successively on a torsion balance. […]
Following the 60-minute incubation period, tissue slices were separated from incubation medium by filtration, reweighed, and homogenized in 1N HClO4 (10% w/v) for electrolyte analysis. […] Control slice swelling is expressed as microliters per gram initial preswelling fresh weight. The effectiveness of an inhibitor at a given concentration was measured by the amount of HCO3^- -stimulated swelling that occurred in its presence, computed as a percent of the maximum possible and is reported as an IC50, (See, e.g., Table I (Example 6)). Tissue and media Na^+ and K^+ levels were determined by emission flame photometry with Li^+ internal standard; Cl^- levels were determined by amperometric titration. Tissue viability during incubation is monitored by manometry.

IC50 [µM] | SMILES
0.02 | CC1(C2CCCC2)Cc2cc(OCCCS(=O)(=O)O)c(Cl)c(Cl)c2C1=O (single isomer, unassigned) [Example 2, Sodium (+)3-[(6,7-dichloro-2-cyclopentyl-2-methyl-1-oxo-2,3-dihydro-1H-inden-5-yl)oxy]propanesulfonate hydrate]
0.02 | CC1(C2CCCC2)Cc2cc(OCCCS(=O)(=O)O)c(Cl)c(Cl)c2C1=O (centres unmarked) [Example 1, Sodium 3-[(6,7-dichloro-2-cyclopentyl-2-methyl-1-oxo-2,3-dihydro-1H-inden-5-yl)oxy]propanesulfonate hydrate]

From patent publication US4771076A, “[(2-substituted 1,2-dihydro-1-oxo-1H-inden-5-yl)oxy]alkanesulfonic acids and salts thereof” (Merck & Co., Inc., priority 1987, dated 1988)
